Patent US20210169892A1, “MODULATORS OF THE INTEGRATED STRESS PATHWAY” (Calico Life Sciences LLC, priority 2017, published 2021)

System: HEK293T cells carrying the ATF4 luciferase reporter
Experiment: ATF4-Luc assay (in vitro model of vanishing white matter disease)
Format: cell-based
Conditions: Homo sapiens, HEK-293T; HEK293T cells with ATF4 luciferase reporter, 1 μg/mL tunicamycin, 7 hours, One Glo luminescence
Method in brief: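 Stable HEK293T line with human ATF4 5′-UTR–firefly luciferase reporter treated with 1 μg/mL tunicamycin plus 200 nM compound for 7 h. Luminescence read; EC50 derived.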

| SMILES | EC50 |
| --- | --- |
| CN1CC(C(=O)NC23CC(NC(=O)COc4ccc(Cl)c(F)c4)(C2)C3)Oc2ccc(Cl)cc21 (stereo not shown) [Compound 112, 6-chloro-N-{3-[2-(4-chloro-3-fluorophenoxy)acetamido]bicyclo[1.1.1]pentan-1-yl}-4-methyl-3,4-dihydro-2H-1,4-benzoxazine-2-carboxamide] | < 10 nM |
| CN1CC(C(=O)NC23CCC(NC(=O)COc4ccc(Cl)c(F)c4)(CC2)[C@@H](O)C3)Oc2ccccc21 (stereo partly drawn) [Compound 111, N-{(3S)-4-[2-(4-chloro-3-fluorophenoxy)acetamido]-3-hydroxybicyclo[2.2.2]octan-1-yl}-4-methyl-3,4-dihydro-2H-1,4-benzoxazine-2-carboxamide] | 50 to 250 nM |
| COc1ccc(C(=O)N2CC(C(=O)NC34CC(NC(=O)COc5ccc(Cl)c(F)c5)(C3)C4)Oc3ccc(Cl)cc32)cc1 (stereo not shown) [Compound 150, 6-chloro-N-{3-[2-(4-chloro-3-fluorophenoxy)acetamido]bicyclo[1.1.1]pentan-1-yl}-4-(4-methoxybenzoyl)-3,4-dihydro-2H-1,4-benzoxazine-2-carboxamide] | 250 to 500 nM |
| O=C(COc1ccc(Cl)c(F)c1)NC12CC(NC(=O)C3CN(C(=O)CC(F)(F)F)c4cc(Cl)ccc4O3)(C1)C2 (stereo not shown) [Compound 182, 6-chloro-N-{3-[2-(4-chloro-3-fluorophenoxy)acetamido]bicyclo[1.1.1]pentan-1-yl}-4-(3,3,3-trifluoropropanoyl)-3,4-dihydro-2H-1,4-benzoxazine-2-carboxamide] | 50 to 250 nM |
| C[C@@]1(C(=O)NC23CC(NC(=O)COc4ccc(Cl)c(F)c4)(C2)C3)COc2cc3c(cc21)OC(F)(F)O3 [Compound 130, (7S)—N-{3-[2-(4-chloro-3-fluorophenoxy)acetamido]bicyclo[1.1.1]pentan-1-yl}-2,2-difluoro-7-methyl-6,7-dihydro-2H-furo[2,3-f][1,3]benzodioxole-7-carboxamide] | > 2000 nM |
| O=C(COc1ccc(Cl)c(F)c1)NC12CC(NC(=O)C3CN(C(=O)C4CCOC4)c4cc(Cl)ccc4O3)(C1)C2 (stereo not shown) [Compound 152, 6-chloro-N-{3-[2-(4-chloro-3-fluorophenoxy)acetamido]bicyclo[1.1.1]pentan-1-yl}-4-(oxolane-3-carbonyl)-3,4-dihydro-2H-1,4-benzoxazine-2-carboxamide] | 250 to 500 nM |
| O=C(COc1ccc(Cl)c(F)c1)NC12CC(NC(=O)C3Oc4ccccc4NC3=O)(C1)C2 (stereo not shown) [Compound 109, N-{3-[2-(4-chloro-3-fluorophenoxy)acetamido]bicyclo[1.1.1]pentan-1-yl}-3-oxo-3,4-dihydro-2H-1,4-benzoxazine-2-carboxamide] | 500 to 2000 nM |
| O=C(COc1ccc(Cl)c(F)c1)NC12CC(NC(=O)C3COc4ccccc4O3)(C1)C2 (stereo not shown) [Compound 122, N-{3-[2-(4-chloro-3-fluorophenoxy)acetamido]bicyclo[1.1.1]pentan-1-yl}-2,3-dihydro-1,4-benzodioxine-2-carboxamide] | 10 to 50 nM |
| COC(=O)CNC1CC(C(=O)NC23CC(NC(=O)COc4ccc(Cl)c(F)c4)(C2)C3)Oc2ccc(Cl)cc21 (stereo not shown) [Compound 189, methyl {[6-chloro-2-({3-[2-(4-chloro-3-fluorophenoxy)acetamido]bicyclo[1.1.1]pentan-1-yl}carbamoyl)-3,4-dihydro-2H-1-benzopyran-4-yl]amino}acetate] | 10 to 50 nM |
| O=C(COc1ccc(Cl)c(F)c1)NC12CCC(NC(=O)C3CNc4ccccc4O3)(CC1)C[C@@H]2O (stereo partly drawn) [Compound 110, N-{(3S)-4-[2-(4-chloro-3-fluorophenoxy)acetamido]-3-hydroxybicyclo[2.2.2]octan-1-yl}-3,4-dihydro-2H-1,4-benzoxazine-2-carboxamide] | 10 to 50 nM |
